# From article PMC8550792, “Evolution of kinase polypharmacology across HSP90 drug discovery” (Cell Chemical Biology, 2021)
# What was measured:
# Assay in all cases: biochemical
# Format in all cases: biochemical
# 382 unique human kinases [1] = target: T1, 382 unique human kinases (Homo sapiens, UniProt P00533, DEL746-750/T790M); settings: EGFR (d746-750/T790M), 10 uM; for remaining activity at 10 µM: read-out: % Enzyme Activity (relative to DMSO controls)
# T1 construct: purchased Reaction Biology (HotSpot contract assay)
# 382 unique human kinases [2] = target: T2, 382 unique human kinases (Homo sapiens, UniProt Q08345); settings: DDR1, [ATP] 100 µM
# T2 construct: purchased Reaction Biology (HotSpot contract assay)
# T2 sequence (Q08345 19-913): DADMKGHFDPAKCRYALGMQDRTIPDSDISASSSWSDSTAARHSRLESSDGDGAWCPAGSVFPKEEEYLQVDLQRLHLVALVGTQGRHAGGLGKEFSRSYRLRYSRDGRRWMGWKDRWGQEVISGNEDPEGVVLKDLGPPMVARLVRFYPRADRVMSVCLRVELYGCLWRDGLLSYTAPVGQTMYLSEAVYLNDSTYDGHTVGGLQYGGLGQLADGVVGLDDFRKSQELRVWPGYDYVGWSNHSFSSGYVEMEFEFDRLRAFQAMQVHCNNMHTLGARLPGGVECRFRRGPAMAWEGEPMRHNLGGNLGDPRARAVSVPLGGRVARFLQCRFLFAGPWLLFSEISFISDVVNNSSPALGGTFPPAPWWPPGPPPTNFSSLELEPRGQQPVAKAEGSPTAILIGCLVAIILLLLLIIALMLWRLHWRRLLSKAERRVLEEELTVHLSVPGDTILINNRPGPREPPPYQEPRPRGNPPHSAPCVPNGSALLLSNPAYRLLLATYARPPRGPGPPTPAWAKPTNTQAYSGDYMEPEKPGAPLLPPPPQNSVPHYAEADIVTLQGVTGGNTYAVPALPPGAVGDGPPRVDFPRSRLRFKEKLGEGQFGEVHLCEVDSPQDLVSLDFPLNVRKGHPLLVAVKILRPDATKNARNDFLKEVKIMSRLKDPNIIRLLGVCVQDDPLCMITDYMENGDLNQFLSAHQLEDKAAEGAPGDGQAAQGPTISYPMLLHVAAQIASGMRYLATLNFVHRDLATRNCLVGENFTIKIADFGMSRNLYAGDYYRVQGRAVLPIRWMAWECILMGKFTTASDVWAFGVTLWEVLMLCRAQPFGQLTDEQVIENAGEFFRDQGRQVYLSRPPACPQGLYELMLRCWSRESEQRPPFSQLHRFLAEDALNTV
# 382 unique human kinases [3] = target: T3, 382 unique human kinases (Homo sapiens, UniProt Q96BR1); settings: SGK3/SGKL, 10 uM; for remaining activity at 10 µM: read-out: % Enzyme Activity (relative to DMSO controls)
# T3 construct: purchased Reaction Biology (HotSpot contract assay)
# T3 sequence (Q96BR1 1-496): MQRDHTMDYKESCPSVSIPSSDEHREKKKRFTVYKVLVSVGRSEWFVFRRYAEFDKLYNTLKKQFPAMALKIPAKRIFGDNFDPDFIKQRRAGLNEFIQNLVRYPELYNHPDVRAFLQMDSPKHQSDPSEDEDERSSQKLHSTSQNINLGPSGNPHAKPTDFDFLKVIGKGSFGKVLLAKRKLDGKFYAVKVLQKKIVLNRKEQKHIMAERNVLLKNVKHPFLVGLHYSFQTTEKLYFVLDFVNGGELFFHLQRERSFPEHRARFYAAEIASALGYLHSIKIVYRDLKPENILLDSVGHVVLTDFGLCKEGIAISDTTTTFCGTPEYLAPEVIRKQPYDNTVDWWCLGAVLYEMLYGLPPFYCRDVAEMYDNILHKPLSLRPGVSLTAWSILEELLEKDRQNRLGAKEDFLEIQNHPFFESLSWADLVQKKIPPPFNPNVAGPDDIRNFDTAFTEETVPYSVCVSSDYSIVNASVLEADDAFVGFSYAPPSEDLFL
# 382 unique human kinases [4] = target: T4, 382 unique human kinases (Homo sapiens, UniProt Q02763, Y897S); settings: TIE2 (Y897S), 10 uM; for remaining activity at 10 µM: read-out: % Enzyme Activity (relative to DMSO controls)
# T4 construct: purchased Reaction Biology (HotSpot contract assay)
# T4 sequence (Q02763 23-1124 Y897S): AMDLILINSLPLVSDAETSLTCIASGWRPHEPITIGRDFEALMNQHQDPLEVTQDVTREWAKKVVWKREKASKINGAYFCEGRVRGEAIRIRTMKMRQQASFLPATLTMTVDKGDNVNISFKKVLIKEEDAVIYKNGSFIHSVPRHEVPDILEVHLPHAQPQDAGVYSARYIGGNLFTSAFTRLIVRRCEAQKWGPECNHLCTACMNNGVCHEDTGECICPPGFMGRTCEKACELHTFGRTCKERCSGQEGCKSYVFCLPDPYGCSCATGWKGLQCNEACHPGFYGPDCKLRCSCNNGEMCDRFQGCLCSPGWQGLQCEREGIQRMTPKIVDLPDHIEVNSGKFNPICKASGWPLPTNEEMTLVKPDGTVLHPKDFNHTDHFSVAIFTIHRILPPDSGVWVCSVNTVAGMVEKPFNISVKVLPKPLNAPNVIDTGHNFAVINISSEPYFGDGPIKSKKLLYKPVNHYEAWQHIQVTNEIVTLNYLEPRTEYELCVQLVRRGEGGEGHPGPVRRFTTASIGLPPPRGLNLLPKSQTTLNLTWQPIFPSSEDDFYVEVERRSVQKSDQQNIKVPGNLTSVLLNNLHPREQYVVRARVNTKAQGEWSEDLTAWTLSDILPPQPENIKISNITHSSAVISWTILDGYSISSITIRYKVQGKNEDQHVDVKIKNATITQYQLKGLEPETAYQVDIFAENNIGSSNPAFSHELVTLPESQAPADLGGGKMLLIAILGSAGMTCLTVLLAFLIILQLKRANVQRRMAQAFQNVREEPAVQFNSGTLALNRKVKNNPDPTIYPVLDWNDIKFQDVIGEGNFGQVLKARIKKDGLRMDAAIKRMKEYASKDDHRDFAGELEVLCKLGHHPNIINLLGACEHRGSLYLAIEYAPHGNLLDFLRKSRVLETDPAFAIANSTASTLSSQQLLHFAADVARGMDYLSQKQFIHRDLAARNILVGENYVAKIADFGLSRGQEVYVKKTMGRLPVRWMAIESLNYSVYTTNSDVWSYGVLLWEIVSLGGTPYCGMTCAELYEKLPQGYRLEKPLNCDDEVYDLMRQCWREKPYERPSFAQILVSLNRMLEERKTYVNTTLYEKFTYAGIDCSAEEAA
# 382 unique human kinases [5] = target: T5, 382 unique human kinases (Homo sapiens, UniProt Q9H093); settings: SNARK/NUAK2, 10 uM; for remaining activity at 10 µM: read-out: % Enzyme Activity (relative to DMSO controls)
# T5 construct: purchased Reaction Biology (HotSpot contract assay)
# T5 sequence (Q9H093 1-628): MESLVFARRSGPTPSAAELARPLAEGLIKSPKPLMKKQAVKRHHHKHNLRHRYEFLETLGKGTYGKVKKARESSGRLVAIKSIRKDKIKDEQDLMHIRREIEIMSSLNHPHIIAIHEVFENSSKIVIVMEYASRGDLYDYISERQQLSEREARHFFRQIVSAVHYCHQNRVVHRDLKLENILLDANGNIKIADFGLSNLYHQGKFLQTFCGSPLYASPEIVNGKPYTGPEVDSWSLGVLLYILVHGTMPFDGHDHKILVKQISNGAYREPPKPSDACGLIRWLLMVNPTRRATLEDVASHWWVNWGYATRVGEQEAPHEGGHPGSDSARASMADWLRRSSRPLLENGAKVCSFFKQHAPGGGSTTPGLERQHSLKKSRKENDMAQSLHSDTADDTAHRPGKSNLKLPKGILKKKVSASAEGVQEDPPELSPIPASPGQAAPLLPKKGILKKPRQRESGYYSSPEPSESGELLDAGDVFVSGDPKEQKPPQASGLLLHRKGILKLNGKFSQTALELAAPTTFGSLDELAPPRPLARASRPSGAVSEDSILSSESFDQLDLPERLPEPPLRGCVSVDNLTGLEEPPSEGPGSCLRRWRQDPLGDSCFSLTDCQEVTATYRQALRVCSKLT
# 382 unique human kinases [6] = target: T6, 382 unique human kinases (Homo sapiens, UniProt P45983); settings: JNK1, 10 uM; for remaining activity at 10 µM: read-out: % Enzyme Activity (relative to DMSO controls)
# T6 construct: purchased Reaction Biology (HotSpot contract assay)
# T6 sequence (P45983 whole entry): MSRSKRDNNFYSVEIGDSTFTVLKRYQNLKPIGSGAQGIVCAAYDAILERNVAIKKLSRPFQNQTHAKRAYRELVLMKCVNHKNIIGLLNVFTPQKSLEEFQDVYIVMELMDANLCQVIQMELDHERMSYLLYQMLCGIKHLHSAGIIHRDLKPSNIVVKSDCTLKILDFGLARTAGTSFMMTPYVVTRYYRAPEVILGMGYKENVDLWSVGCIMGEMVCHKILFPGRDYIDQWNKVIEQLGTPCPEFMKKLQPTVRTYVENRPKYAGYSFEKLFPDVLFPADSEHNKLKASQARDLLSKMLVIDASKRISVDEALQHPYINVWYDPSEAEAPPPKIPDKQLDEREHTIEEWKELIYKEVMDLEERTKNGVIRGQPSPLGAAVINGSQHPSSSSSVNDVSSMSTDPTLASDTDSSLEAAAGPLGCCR
# 382 unique human kinases [7] = target: T7, 382 unique human kinases (Homo sapiens, UniProt P51451); settings: BLK, [ATP] 10 µM
# T7 construct: purchased Reaction Biology (HotSpot contract assay)
# T7 sequence (P51451 whole entry): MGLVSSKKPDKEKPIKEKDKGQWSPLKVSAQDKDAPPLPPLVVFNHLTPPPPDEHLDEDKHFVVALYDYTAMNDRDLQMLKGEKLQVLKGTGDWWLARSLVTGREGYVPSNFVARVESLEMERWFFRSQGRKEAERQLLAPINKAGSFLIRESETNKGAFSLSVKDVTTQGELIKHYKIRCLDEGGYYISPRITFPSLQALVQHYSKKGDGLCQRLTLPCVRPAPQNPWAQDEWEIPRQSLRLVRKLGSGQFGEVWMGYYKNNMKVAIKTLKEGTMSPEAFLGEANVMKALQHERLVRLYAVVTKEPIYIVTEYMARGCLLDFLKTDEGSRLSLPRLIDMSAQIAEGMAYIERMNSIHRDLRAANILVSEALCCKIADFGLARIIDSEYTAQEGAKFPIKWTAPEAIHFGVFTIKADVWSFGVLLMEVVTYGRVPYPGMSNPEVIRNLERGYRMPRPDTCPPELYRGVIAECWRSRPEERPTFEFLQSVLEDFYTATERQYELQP
# 382 unique human kinases [8] = target: T8, 382 unique human kinases (Homo sapiens, UniProt Q15835); settings: GRK1, 10 uM; for remaining activity at 10 µM: read-out: % Enzyme Activity (relative to DMSO controls)
# T8 construct: purchased Reaction Biology (HotSpot contract assay)
# T8 sequence (Q15835 1-563): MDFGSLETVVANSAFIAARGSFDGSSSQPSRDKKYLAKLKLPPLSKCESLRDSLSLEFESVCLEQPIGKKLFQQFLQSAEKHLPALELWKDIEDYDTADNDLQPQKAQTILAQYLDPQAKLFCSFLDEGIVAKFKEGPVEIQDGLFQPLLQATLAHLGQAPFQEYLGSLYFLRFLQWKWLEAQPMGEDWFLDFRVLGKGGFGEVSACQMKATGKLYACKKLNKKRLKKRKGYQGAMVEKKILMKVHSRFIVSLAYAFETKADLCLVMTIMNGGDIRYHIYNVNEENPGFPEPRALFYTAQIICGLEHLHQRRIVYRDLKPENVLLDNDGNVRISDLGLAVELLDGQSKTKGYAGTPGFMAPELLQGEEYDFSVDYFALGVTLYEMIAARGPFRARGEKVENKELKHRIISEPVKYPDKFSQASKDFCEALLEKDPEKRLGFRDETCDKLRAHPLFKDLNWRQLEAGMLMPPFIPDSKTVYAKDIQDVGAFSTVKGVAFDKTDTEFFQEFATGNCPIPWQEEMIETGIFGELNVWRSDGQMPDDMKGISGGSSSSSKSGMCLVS
# 382 unique human kinases [9] = target: T9, 382 unique human kinases (Homo sapiens, UniProt P00533, L858R/T790M); settings: EGFR (L858R, T790M), 10 uM; for remaining activity at 10 µM: read-out: % Enzyme Activity (relative to DMSO controls)
# T9 construct: purchased Reaction Biology (HotSpot contract assay)
# 382 unique human kinases [10] = target: T10, 382 unique human kinases (Homo sapiens, UniProt Q15759); settings: kinase P38b/MAPK11, compound 10 uM; for remaining activity at 10 µM: read-out: % Enzyme Activity (relative to DMSO controls)
# T10 construct: purchased Reaction Biology (HotSpot contract assay)
# T10 sequence (Q15759 whole entry): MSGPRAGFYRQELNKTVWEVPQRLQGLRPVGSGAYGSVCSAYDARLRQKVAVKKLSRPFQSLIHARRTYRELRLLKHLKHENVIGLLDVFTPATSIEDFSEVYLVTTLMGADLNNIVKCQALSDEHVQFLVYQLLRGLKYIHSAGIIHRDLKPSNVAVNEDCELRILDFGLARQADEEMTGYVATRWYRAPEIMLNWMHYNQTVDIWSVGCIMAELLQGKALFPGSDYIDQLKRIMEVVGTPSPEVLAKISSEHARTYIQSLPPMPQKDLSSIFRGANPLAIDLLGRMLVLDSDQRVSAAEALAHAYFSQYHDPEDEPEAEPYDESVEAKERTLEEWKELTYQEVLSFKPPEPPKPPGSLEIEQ
# [11] = compound 10 uM, read-out: % Enzyme Activity (relative to DMSO controls)
# [12] = compound 1 uM, read-out: % Enzyme Activity (relative to DMSO controls)
SMILES,remaining activity at 10 µM (382 unique human kinases [1]),remaining activity at 10 µM (382 unique human kinases [2]; [11]),remaining activity at 10 µM (382 unique human kinases [3]),remaining activity at 10 µM (382 unique human kinases [4]),remaining activity at 10 µM (382 unique human kinases [5]),remaining activity at 10 µM (382 unique human kinases [6]),remaining activity at 10 µM (382 unique human kinases [7]; [11]),remaining activity at 10 µM (382 unique human kinases [8]),remaining activity at 10 µM (382 unique human kinases [9]),remaining activity at 10 µM (382 unique human kinases [10]),also measured
CCNC(=O)c1noc(-c2cc(C(C)C)c(O)cc2O)c1-c1ccc(CN2CCOCC2)cc1 [Luminespib],100%,85.9%,106%,117%,98.6%,103%,38.1%,,,,% Enzyme Activity (relative to DMSO controls) (382 unique human kinases [1]): 99.12%; % Enzyme Activity (relative to DMSO controls) (382 unique human kinases [2]; compound 10 uM): 84.86%; % Enzyme Activity (relative to DMSO controls) (382 unique human kinases [3]): 105.88%; % Enzyme Activity (relative to DMSO controls) (382 unique human kinases [4]): 116.81%; % Enzyme Activity (relative to DMSO controls) (382 unique human kinases [5]): 96.83%; % Enzyme Activity (relative to DMSO controls) (382 unique human kinases [6]): 101.32%; % Enzyme Activity (relative to DMSO controls) (382 unique human kinases [7]; compound 10 uM): 36.97%
CC(C)c1cc(-c2n[nH]c(=O)n2-c2ccc3c(ccn3C)c2)c(O)cc1O [Ganetespib (STA9090)],,,,,,,,76%,91.5%,108%,
CCNC(=O)c1noc(-c2cc(C(C)C)c(O)cc2O)c1-c1ccc(CN2CCOCC2)cc1 [Luminespib (AUY-922)],,,,,,,,85.9%,73.8%,86.3%,% Enzyme Activity (relative to DMSO controls) (382 unique human kinases [8]): 85.44%; % Enzyme Activity (relative to DMSO controls) (382 unique human kinases [9]): 61.22%; % Enzyme Activity (relative to DMSO controls) (382 unique human kinases [10]): 82.81%
CC(C)c1cc(-c2n[nH]c(=O)n2-c2ccc3c(ccn3C)c2)c(O)cc1O [Ganetespib],118%,4.12%,101%,98.7%,100%,99.3%,7.74%,,,,remaining activity at 1 µM (382 unique human kinases [2]; [12]): 8.59%; remaining activity at 1 µM (382 unique human kinases [7]; [12]): 38.4%
